# Experiments:
# SIRT1 = SIRT1 (Homo sapiens, UniProt Q96EB6); assay: Deacetylation activity selectivity, SIRT1; assay type: biochemical
# Protocol: (§1) Fluor-De-Lys (FDL) assays were used for the examination of the deacetylation activities of sirtuins as described previously. For the detection of SIRT6 activity, the 50-μL reaction mixture contained 5 μM SIRT6, 2.5 mM NAD^+ (β-Nicotinamide adenine dinucleotide hydrate, Sigma, N1636), 75 μM RHKK-Ac-AMC (GL Biochem, Shanghai), compounds/DMSO, and assay buffer. The reactions were incubated at 37 °C for 2 h, added 50 μL stop solution (40 mM nicotinamide, 6 mg/mL trypsin) at 25 °C for 30 min. Fluorescence intensity was measured at an excitation wavelength of 360 nm and an emission wavelength of 460 nm. IC50 values were calculated in GraphPad Prism version 8.00.
# (§2) Based on the above results, 8a was further investigated in this study. […] To further evaluate the selectivity of 8a for SIRT6, we examined the effect of 8a on the deacetylation activity of other HDAC family members, including HDAC1-HDAC11, SIRT1-SIRT3 and SIRT5. […] Furthermore, to confirm binding of 8a to SIRT6 in cells, we carried out the cellular thermal shift assay (CETSA). The CETSA approach builds on the thermal shift assay concept where ligand binding to its target protein enhances the target protein stability. We observed that the thermal stability of SIRT6 increased after 8a treatment (Figs. 2c, d).
# SIRT2 = SIRT2 (Homo sapiens, UniProt Q8IXJ6); assay: Deacetylation activity selectivity, SIRT2; assay type: biochemical
# Protocol: as §1, §2
# SIRT5 = SIRT5 (Homo sapiens, UniProt Q9NXA8); assay: Deacetylation activity selectivity, SIRT5; assay type: biochemical
# Protocol: as §1, §2
# HDAC2 = HDAC2 (Homo sapiens, UniProt Q92769); assay: Deacetylation activity selectivity, HDAC2; assay type: biochemical
# Description: as §2
# HDAC6 = HDAC6 (Homo sapiens, UniProt Q9UBN7); assay: Deacetylation activity selectivity, HDAC6; assay type: biochemical
# Description: as §2
# HDAC7 = HDAC7 (Homo sapiens, UniProt Q8WUI4); assay: Deacetylation activity selectivity, HDAC7; assay type: biochemical
# Description: as §2
# HDAC11 = HDAC11 (Homo sapiens, UniProt Q96DB2); assay: Deacetylation activity selectivity, HDAC11; assay type: biochemical
# Description: as §2
# [1] = target: T1, SIRT6 mutant (V70A and F86A) (Homo sapiens, UniProt Q8N6T7, F86A/V70A); assay: FDL assay on SIRT6 mutant (V70A and F86A); assay type: biochemical
# T1 construct: The human full-length SIRT6 gene was inserted into the prokaryotic expression vector (pET-28a (+)); inferred from the pET-28a(+) vector and Ni-NTA purification of the wild-type construct); made in house; host or cells: Escherichia coli BL21 (DE3) (inferred from the wild-type protocol)
# Protocol: as §1
# To explore the interaction mechanism, we performed the molecular docking experiment between SIRT6 (PDB ID: 6QCJ) and 8a. […] 8a mainly formed hydrogen bond with the backbone amino group of D187 and the ribose hydroxyl group of the coenzyme NAD^+, and stabilized the whole system by hydrophobic interactions with key amino acids such as I8, V70, W71, F82 and F86 (Fig. 2g). To verify this binding model, the mutant (V70A and F86A) of SIRT6 was constructed by site mutation. […] Moreover, there were also some other potential binding pockets predicted by molecular docking (data not shown). Based on the prediction, we constructed other two SIRT6 mutants (E140A/R195A and T184A/S191A/P193A/E283A). […]
# PANC-1 cells = assay: MTT proliferation assay, PANC-1; assay type: cell-based; details: 72 h
# Protocol: BXPC-3 and PANC-1 cells were plated in 96-well plates at 5000 cells per well. After 12 h attachment, varying concentrations of 8a were added into the culture medium for 72 h. Then 10 μL MTT (5 mg/ml) solution was added into per well for 4 h at 37 °C. After removing medium, formazan crystals were dissolved in 150 µL DMSO. The cells viability was quantified by measuring the absorbance at 570 nm.
# HUVEC cells = assay: MTT cytotoxicity, normal HUVEC cells; assay type: cell-based; details: 72 h
# β-TC-6 cells = assay: Cell glucose uptake assay, β-TC-6; assay type: cell-based; details: β-TC-6, 8a (3.125, 6.25, 12.5 μM) + insulin (100 nM) vs insulin only, 30 min
# Protocol: The NIT-1 and β-TC-6 cells were added to the wells of 12-well plates and incubated overnight. Then the culture medium without FBS was incubated for 6 h, and different concentrations of 8a (3.125, 6.25, 12.5 μM), insulin (100 nM) or their combination were added for 30 min. Glucose uptake was determined using a Glucose Uptake Assay Kit (Jiancheng, Nanjing).
# SIRT6 [2] = target: T2, SIRT6 (Homo sapiens, UniProt Q8N6T7); assay: Cellular thermal shift assay (CETSA) in Hela cells; assay type: cell-based; design: endogenous in cells; host or cells: HeLa; details: 8a 25 μM, 6 h
# Protocol: The CETSA [26] approach builds on the thermal shift assay concept where ligand binding to its target protein affects protein stability at high temperatures. Hela cells were plated in 100 mm plates. After 12 h attachment, Hela cells were incubated with 8a (25 μM) for 6 h, and then the cells were digested with trypsin and collected. The collected cells were subsequently aliquoted into […], and incubated each part at different temperatures (40, 41, 42, 43, 44, 45, 46, 47, 48, 49 and 50 °C) for 3 min. The heated cells were then snap frozen in liquid nitrogen three times to lyse. After that, the lysed cells were then centrifuged at 12,000 rpm for 20 min. Then the level of SIRT6 was detected by western blot.
# SIRT6 [3] = target: T2, SIRT6; assay: Fluor-De-Lys (FDL) SIRT6 deacetylation assay; assay type: biochemical; design: The human full-length SIRT6 gene was inserted into the prokaryotic expression vector (pET-28a (+)); inferred from the pET-28a(+) vector, Ni-NTA purification and Ni-NTA biosensor loading); made in house; host or cells: Escherichia coli BL21 (DE3)
# [4] = Lineweaver–Burk plot, RHKK-Ac-AMC and NAD+ substrates
# T2 sequence (Q8N6T7 whole entry): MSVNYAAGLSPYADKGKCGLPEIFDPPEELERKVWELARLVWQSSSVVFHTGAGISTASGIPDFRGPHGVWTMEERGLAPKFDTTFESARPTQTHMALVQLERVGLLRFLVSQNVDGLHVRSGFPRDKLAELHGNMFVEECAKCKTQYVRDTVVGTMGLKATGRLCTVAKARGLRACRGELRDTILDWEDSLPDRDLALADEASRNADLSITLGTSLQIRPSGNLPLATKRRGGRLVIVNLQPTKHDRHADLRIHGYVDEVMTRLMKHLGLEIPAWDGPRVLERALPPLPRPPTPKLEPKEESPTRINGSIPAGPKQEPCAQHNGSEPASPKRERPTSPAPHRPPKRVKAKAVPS
# T1 sequence (Q8N6T7 whole entry V70A/F86A): as the sequence (Q8N6T7 whole entry) above, with V70A, F86A counted along it
# Chain of HDAC2 (Q92769 whole entry, species assumed): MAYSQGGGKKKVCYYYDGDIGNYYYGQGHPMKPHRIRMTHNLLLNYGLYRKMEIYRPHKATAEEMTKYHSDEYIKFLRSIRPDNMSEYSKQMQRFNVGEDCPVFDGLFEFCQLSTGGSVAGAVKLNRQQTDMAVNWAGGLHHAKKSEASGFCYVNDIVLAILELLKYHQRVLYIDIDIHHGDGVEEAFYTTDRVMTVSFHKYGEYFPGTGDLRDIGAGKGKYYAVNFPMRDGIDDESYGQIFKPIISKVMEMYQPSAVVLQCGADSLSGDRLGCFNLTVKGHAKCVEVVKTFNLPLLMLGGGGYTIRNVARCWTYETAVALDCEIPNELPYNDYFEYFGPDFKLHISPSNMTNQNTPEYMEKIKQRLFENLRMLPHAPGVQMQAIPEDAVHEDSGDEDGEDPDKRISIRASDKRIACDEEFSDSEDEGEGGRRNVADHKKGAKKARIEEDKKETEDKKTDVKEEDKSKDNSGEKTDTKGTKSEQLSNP
# Chain of SIRT2 (Q8IXJ6 whole entry, species assumed): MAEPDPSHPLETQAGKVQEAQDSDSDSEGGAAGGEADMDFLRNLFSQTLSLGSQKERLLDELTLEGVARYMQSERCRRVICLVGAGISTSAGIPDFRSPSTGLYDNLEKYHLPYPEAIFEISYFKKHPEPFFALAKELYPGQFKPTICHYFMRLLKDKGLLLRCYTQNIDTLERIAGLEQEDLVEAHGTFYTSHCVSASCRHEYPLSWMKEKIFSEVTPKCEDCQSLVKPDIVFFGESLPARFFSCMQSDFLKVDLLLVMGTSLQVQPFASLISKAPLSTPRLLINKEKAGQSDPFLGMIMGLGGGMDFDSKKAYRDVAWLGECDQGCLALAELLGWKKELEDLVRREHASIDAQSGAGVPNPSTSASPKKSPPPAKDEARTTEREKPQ
# Chain of HDAC11 (Q96DB2 whole entry, species assumed): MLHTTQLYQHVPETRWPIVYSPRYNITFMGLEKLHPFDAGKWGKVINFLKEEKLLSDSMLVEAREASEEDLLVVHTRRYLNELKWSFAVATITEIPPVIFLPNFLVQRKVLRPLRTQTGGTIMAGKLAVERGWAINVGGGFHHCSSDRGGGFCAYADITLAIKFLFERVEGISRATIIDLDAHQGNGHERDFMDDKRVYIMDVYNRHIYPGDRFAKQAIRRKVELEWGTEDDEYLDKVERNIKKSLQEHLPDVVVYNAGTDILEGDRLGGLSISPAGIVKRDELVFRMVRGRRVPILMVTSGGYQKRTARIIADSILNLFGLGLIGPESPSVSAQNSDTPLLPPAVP
# Chain of HDAC6 (Q9UBN7 whole entry, species assumed): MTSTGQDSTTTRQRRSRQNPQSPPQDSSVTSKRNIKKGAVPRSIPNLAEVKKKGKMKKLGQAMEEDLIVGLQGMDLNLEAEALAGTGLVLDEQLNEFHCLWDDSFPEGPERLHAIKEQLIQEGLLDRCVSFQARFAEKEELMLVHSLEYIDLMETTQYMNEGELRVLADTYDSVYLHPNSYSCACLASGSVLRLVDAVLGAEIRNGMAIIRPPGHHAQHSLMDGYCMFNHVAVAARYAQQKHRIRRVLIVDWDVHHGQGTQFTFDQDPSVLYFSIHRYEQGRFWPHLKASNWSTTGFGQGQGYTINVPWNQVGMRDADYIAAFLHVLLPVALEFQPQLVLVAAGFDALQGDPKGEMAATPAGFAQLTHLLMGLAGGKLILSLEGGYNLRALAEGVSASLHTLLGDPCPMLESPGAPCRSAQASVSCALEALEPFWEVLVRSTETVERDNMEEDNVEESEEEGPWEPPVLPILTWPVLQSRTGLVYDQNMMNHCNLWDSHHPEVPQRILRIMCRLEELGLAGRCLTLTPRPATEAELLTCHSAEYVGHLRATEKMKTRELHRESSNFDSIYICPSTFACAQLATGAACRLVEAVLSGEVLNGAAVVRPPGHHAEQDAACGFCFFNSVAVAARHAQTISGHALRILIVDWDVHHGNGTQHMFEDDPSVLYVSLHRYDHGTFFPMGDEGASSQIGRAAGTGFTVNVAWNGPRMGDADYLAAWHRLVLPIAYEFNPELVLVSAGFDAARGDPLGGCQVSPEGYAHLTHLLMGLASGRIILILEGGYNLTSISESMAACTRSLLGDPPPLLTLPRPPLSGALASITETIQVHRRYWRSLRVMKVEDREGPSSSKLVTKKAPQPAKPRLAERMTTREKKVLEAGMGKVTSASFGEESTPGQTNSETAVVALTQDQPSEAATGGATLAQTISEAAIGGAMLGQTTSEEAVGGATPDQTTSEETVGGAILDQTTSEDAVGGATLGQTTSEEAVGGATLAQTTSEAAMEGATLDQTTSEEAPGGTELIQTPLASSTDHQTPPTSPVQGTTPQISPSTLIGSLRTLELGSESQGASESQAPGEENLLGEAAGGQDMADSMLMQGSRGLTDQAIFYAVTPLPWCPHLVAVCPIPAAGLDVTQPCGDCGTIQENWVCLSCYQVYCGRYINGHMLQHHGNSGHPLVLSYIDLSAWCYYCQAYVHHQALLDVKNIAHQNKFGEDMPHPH
# Chain of SIRT5 (Q9NXA8 37-310, species assumed): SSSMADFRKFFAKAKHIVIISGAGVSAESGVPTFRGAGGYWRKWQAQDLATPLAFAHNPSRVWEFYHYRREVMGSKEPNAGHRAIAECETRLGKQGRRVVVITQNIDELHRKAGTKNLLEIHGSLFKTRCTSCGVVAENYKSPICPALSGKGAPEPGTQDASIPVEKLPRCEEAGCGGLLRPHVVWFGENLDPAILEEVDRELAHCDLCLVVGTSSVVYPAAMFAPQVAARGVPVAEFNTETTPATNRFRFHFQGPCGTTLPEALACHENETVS
# Chain of SIRT1 (Q96EB6 whole entry, species assumed): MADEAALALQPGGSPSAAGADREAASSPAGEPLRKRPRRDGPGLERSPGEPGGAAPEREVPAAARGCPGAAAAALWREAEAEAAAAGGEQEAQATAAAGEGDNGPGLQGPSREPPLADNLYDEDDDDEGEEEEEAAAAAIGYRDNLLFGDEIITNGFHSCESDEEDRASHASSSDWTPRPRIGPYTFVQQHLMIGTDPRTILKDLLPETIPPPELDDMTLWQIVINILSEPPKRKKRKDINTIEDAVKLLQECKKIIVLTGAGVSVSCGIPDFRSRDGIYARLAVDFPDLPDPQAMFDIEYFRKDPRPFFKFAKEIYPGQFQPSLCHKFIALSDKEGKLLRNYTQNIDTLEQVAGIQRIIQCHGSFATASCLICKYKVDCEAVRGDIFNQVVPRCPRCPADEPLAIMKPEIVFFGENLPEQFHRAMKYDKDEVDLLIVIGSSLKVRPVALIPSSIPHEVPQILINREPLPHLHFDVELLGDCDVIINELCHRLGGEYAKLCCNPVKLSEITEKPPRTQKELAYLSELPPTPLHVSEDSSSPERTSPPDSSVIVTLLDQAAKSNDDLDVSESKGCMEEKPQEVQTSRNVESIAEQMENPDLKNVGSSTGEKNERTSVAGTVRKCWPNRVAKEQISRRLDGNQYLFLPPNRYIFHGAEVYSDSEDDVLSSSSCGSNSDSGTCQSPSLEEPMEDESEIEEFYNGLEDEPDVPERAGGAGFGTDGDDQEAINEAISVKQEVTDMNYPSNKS
# Chain of HDAC7 (Q8WUI4 whole entry): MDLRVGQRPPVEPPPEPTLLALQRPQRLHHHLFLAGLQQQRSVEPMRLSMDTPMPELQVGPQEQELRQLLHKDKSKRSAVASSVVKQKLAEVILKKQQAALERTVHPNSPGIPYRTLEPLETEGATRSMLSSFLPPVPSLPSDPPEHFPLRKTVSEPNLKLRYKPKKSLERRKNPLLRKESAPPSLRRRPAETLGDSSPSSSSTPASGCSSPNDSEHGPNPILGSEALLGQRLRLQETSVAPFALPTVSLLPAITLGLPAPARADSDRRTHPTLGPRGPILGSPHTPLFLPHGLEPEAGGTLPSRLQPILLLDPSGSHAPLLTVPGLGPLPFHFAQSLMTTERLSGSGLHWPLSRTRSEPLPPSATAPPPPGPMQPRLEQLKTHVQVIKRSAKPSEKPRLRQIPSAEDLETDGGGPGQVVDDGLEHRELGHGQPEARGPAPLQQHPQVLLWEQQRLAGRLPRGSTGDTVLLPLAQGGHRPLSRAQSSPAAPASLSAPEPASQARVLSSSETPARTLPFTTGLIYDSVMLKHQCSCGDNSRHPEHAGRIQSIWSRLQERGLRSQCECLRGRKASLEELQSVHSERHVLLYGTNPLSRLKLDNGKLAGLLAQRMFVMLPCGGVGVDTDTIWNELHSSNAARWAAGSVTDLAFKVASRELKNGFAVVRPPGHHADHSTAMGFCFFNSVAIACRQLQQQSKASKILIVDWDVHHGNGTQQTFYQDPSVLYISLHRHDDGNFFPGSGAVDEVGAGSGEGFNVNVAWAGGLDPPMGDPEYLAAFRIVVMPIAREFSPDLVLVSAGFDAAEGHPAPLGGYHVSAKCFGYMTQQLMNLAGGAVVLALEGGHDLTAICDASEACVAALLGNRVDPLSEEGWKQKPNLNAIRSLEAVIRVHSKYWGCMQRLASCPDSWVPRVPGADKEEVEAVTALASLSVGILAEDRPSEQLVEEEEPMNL
smiles,measurement,setting,value
Br.CN(C)C(SCCCCCCn1cnc2c(-c3cc(Br)c(Br)[nH]3)nccc21)=[N+](C)C.[Cl-] [Compound 8a],IC50,SIRT1,80.5 ± 1.91 µM
same,IC50,SIRT2,92.2 ± 1.95 µM
same,IC50,SIRT5,> 200 µM
same,IC50,HDAC2,> 200 µM
same,IC50,HDAC6,96.8 ± 1.98 µM
same,IC50,HDAC7,> 200 µM
same,IC50,HDAC11,> 200 µM
same,IC50,[1]; FDL assay,79 ± 9 µM
same,increase of IC50 to the mutant (V70A and F86A),[1]; versus wild-type SIRT6,approximately 10 fold
same,IC50,PANC-1 cells,9.28 µM
same,IC50,HUVEC cells,41 µM
same,glucose uptake,β-TC-6 cells,no significant effect
same,thermal stability of SIRT6,SIRT6 [2],increased
same,Km,SIRT6 [3]; [4],did not alter
same,Vmax,SIRT6 [3]; [4],obviously decreased
same,inhibition mode,SIRT6 [3]; competition and enzymatic kinetic assays,non-competitive inhibitor
